Measured values as given in US11034650B2, “Compounds useful for treating a Mannheimia haemolytica or Histophilus somni infection” (Intervet Inc., priority 2016, dated 2021).
≈ marks a conversion by molar mass, not a printed value.

Assays:
Assay type in all cases: cell-based
[1] = tested on: Mannheimia haemolytica MH 6357 (M7/2, reference strain, cattle infection strain); experiment: MIC, broth-microdilution (CLSI VET01-A4), strain MH 6357; conditions: Mannheimia haemolytica strain MH 6357, broth-microdilution; unit assumed
Protocol: (§1) For example, representative compounds were tested against ***, Mannheimia haemolytica and Pasteurella multocida, using the conventional broth-dilution assay.
(§2) The Minimum inhibitory concentrations (MIC) of compounds according to the invention for a number of veterinary bacterial pathogens were determined by the broth-microdilution method according to CLSI document VET01-A4.
(§3) Microdilution trays containing a doubling dilution series of the test compound were used for the tests. The MIC results were interpreted according to the CLSI documents VET01-S3. The lowest concentration of compound at which no visible growth (i.e. no turbidity) detected by the unaided eye was recorded as the MIC.

[2] = tested on: Mannheimia haemolytica MH 6374 (ATCC 33396, reference strain); experiment: MIC, broth-microdilution (CLSI VET01-A4), strain MH 6374; conditions: Mannheimia haemolytica strain MH 6374, broth-microdilution; unit assumed
Protocol: as §1, §2, §3

[3] = tested on: Mannheimia haemolytica MH 10720 (154, BRD field isolate); experiment: MIC, broth-microdilution (CLSI VET01-A4), strain MH 10720; conditions: Mannheimia haemolytica strain MH 10720, broth-microdilution; unit assumed
Protocol: as §1, §2, §3

[4] = tested on: Mannheimia haemolytica MH 12587 (1071, BRD field isolate, macrolide-resistance: erm+, E+); experiment: MIC, broth-microdilution (CLSI VET01-A4), strain MH 12587; conditions: Mannheimia haemolytica strain MH 12587, broth-microdilution; unit assumed
Protocol: as §1, §2, §3

[5] = tested on: Mannheimia haemolytica MH 13065 (XB0446-6003.9, BRD field isolate); experiment: MIC, broth-microdilution (CLSI VET01-A4), strain MH 13065; conditions: Mannheimia haemolytica strain MH 13065, broth-microdilution; unit assumed
Protocol: as §1, §2, §3

[6] = tested on: Mannheimia haemolytica MH 13093 (XB0472-6014.1, BRD field isolate); experiment: MIC, broth-microdilution (CLSI VET01-A4), strain MH 13093; conditions: Mannheimia haemolytica strain MH 13093, broth-microdilution; unit assumed
Protocol: as §1, §2, §3

[7] = tested on: Pasteurella multocida PM 6267 (P 2225 (L386), reference strain, mouse infection strain); experiment: MIC, broth-microdilution (CLSI VET01-A4), strain PM 6267; conditions: Pasteurella multocida strain PM 6267, broth-microdilution; unit assumed
Protocol: as §1, §2, §3

[8] = tested on: Pasteurella multocida PM 10775 (080130003051, BRD field isolate); experiment: MIC, broth-microdilution (CLSI VET01-A4), strain PM 10775; conditions: Pasteurella multocida strain PM 10775, broth-microdilution; unit assumed
Protocol: as §1, §2, §3

[9] = tested on: Pasteurella multocida PM 12080 (IV102277-0093, BRD field isolate); experiment: MIC, broth-microdilution (CLSI VET01-A4), strain PM 12080; conditions: Pasteurella multocida strain PM 12080, broth-microdilution; unit assumed
Protocol: as §1, §2, §3

Structure (SMILES)	MIC PM 6267 [7]	MIC PM 10775 [8]	MIC PM 12080 [9]	MIC MH 6357 [1]	MIC MH 6374 [2]	MIC MH 10720 [3]	MIC MH 12587 [4]	MIC MH 13065 [5]	MIC MH 13093 [6]
CC(C)[C@H](NC(=O)c1ccc(C#Cc2ccc(CNCc3ccncc3)cc2)cc1)C(=O)NO [Compound 110]	≤ 0.1 µg/mL	≤ 0.1 µg/mL	0.2 µg/mL (≈ 0.438 µM)	1.6 µg/mL (≈ 3.5 µM)	0.4 µg/mL (≈ 0.876 µM)	≤ 0.1 µg/mL	0.8 µg/mL (≈ 1.75 µM)	0.4 µg/mL (≈ 0.876 µM)	0.4 µg/mL (≈ 0.876 µM)
CC[C@H](C)[C@H](NC(=O)c1ccc(C#Cc2ccc(CNC3CC3)cc2)cc1)C(=O)NO [Compound 112]	≤ 0.1 µg/mL	≤ 0.1 µg/mL	0.2 µg/mL (≈ 0.477 µM)	1.6 µg/mL (≈ 3.81 µM)	0.4 µg/mL (≈ 0.953 µM)	≤ 0.1 µg/mL	0.8 µg/mL (≈ 1.91 µM)	0.4 µg/mL (≈ 0.953 µM)	0.4 µg/mL (≈ 0.953 µM)
C=CCNCc1ccc(C#Cc2ccc(C(=O)N[C@H](C(=O)NO)[C@@H](C)CC)cc2)cc1 [Compound 113]	0.4 µg/mL (≈ 0.953 µM)	≤ 0.1 µg/mL	0.8 µg/mL (≈ 1.91 µM)	3.1 µg/mL (≈ 7.39 µM)	0.8 µg/mL (≈ 1.91 µM)	0.4 µg/mL (≈ 0.953 µM)	3.1 µg/mL (≈ 7.39 µM)	1.6 µg/mL (≈ 3.81 µM)	3.1 µg/mL (≈ 7.39 µM)
CC[C@H](C)[C@H](NC(=O)c1ccc(C#Cc2ccc(CNCCOC)cc2)cc1)C(=O)NO [Compound 115]	0.4 µg/mL (≈ 0.914 µM)	≤ 0.1 µg/mL	1.6 µg/mL (≈ 3.66 µM)	6.3 µg/mL (≈ 14.4 µM)	1.6 µg/mL (≈ 3.66 µM)	0.8 µg/mL (≈ 1.83 µM)	6.3 µg/mL (≈ 14.4 µM)	3.1 µg/mL (≈ 7.09 µM)	3.1 µg/mL (≈ 7.09 µM)
CC[C@H](C)[C@H](NC(=O)c1ccc(C#Cc2ccc(CNCCN(C)C)cc2)cc1)C(=O)NO [Compound 116]	0.8 µg/mL (≈ 1.78 µM)	0.4 µg/mL (≈ 0.888 µM)	3.1 µg/mL (≈ 6.88 µM)	25 µg/mL (≈ 55.5 µM)	25 µg/mL (≈ 55.5 µM)	3.1 µg/mL (≈ 6.88 µM)	1 µg/mL (≈ 2.22 µM)	25 µg/mL (≈ 55.5 µM)	25 µg/mL (≈ 55.5 µM)
CC[C@H](C)[C@H](NC(=O)c1ccc(C#Cc2ccc(CN(CC)CC)cc2)cc1)C(=O)NO [Compound 118]	0.4 µg/mL (≈ 0.918 µM)	0.2 µg/mL (≈ 0.459 µM)	1.6 µg/mL (≈ 3.67 µM)	6.3 µg/mL (≈ 14.5 µM)	12.5 µg/mL (≈ 28.7 µM)	3.1 µg/mL (≈ 7.12 µM)	25 µg/mL (≈ 57.4 µM)	12.5 µg/mL (≈ 28.7 µM)	12.5 µg/mL (≈ 28.7 µM)

The next lines start with results.

MIC PM 6267 [7]	MIC PM 10775 [8]	MIC PM 12080 [9]	Structure (SMILES)	MIC MH 6357 [1]	MIC MH 6374 [2]	MIC MH 10720 [3]	MIC MH 12587 [4]	MIC MH 13065 [5]	MIC MH 13093 [6]
0.8 µg/mL (≈ 1.65 µM)	0.4 µg/mL (≈ 0.827 µM)	1.6 µg/mL (≈ 3.31 µM)	Cc1ccc(CNCc2ccc(C#Cc3ccc(C(=O)N[C@H](C(=O)NO)C(C)C)cc3)cc2)cc1C [Compound 111]	3.1 µg/mL (≈ 6.41 µM)	3.1 µg/mL (≈ 6.41 µM)	0.8 µg/mL (≈ 1.65 µM)	12.5 µg/mL (≈ 25.8 µM)	3.1 µg/mL (≈ 6.41 µM)	3.1 µg/mL (≈ 6.41 µM)
0.2 µg/mL (≈ 0.445 µM)	≤ 0.1 µg/mL	0.8 µg/mL (≈ 1.78 µM)	CC[C@H](C)[C@H](NC(=O)c1ccc(C#Cc2ccc(CNCC(C)(C)C)cc2)cc1)C(=O)NO [Compound 114]	6.3 µg/mL (≈ 14 µM)	12.5 µg/mL (≈ 27.8 µM)	1.6 µg/mL (≈ 3.56 µM)	12.5 µg/mL (≈ 27.8 µM)	6.3 µg/mL (≈ 14 µM)	6.3 µg/mL (≈ 14 µM)
≤ 0.1 µg/mL	≤ 0.1 µg/mL	≤ 0.1 µg/mL	CC[C@H](C)[C@H](NC(=O)c1ccc(C#Cc2ccc(CN3CCOCC3)cc2)cc1)C(=O)NO [Compound 119]	1.6 µg/mL (≈ 3.56 µM)	1.6 µg/mL (≈ 3.56 µM)	0.4 µg/mL (≈ 0.89 µM)	3.1 µg/mL (≈ 6.9 µM)	1.6 µg/mL (≈ 3.56 µM)	3.1 µg/mL (≈ 6.9 µM)
3.1 µg/mL (≈ 6.25 µM)	0.8 µg/mL (≈ 1.61 µM)	3.1 µg/mL (≈ 6.25 µM)	CC[C@H](C)[C@H](NC(=O)c1ccc(C#Cc2ccc(CN3CCc4ccccc4C3)cc2)cc1)C(=O)NO [Compound 124]	6.3 µg/mL (≈ 12.7 µM)	12.5 µg/mL (≈ 25.2 µM)	3.1 µg/mL (≈ 6.25 µM)	25 µg/mL (≈ 50.4 µM)	12.5 µg/mL (≈ 25.2 µM)	12.5 µg/mL (≈ 25.2 µM)
